Assay results reported in patent publication US9163012B2, “Carbamate and urea inhibitors of 11β-hydroxysteroid dehydrogenase 1” (Vitae Pharmaceuticals, Inc., priority 2009, dated 2015).

Key:
Assay type in all cases: biochemical
11β-HSD1 [1] = molecular target: T1, 11β-HSD1 (Homo sapiens (Human), UniProt P28845); assay: Biological Test Example 3: inhibition of purified recombinant 11β-HSD1 (SPA); conditions: purified recombinant 11β-HSD1 expressed in E. coli, read-out: IC50 Range
Method: The inhibition of purified 11β-HSD1 by compounds of Formula I is measured using a Scintillation Proximity Assay. All reactions are carried out at room temperature in 96 well flexible Microbeta reaction plates. First, 1 μL of a 0.1 mM solution of a compound of Formula I is mixed in DMSO diluted in half-log increments (8 points) starting at 1 μM final concentration. To this dot is added 50 μL of substrate solution (50 mM HEPES, pH 7.4, 100 mM KCl, 5 mM NaCl, 2 mM MgCl2 containing 20 μM ^3H cortisone, 1 mM NADPH). […] The reaction is then incubated for 90 minutes, and stopped by adding 50 μl of SPA bead mix (18-β-glycyrrhetinic acid, 10 μM final, 5 mg/ml protein A coated YSi SPA beads, and 1 ug/ml α-cortisol antibody (East Coast Biologics)). The plate is shaken for 120 minutes, and the radioactivity corresponding to ^3H cortisol is measured on a Wallac Microbeta.
Target sequence in this assay (P28845 whole entry, species assumed): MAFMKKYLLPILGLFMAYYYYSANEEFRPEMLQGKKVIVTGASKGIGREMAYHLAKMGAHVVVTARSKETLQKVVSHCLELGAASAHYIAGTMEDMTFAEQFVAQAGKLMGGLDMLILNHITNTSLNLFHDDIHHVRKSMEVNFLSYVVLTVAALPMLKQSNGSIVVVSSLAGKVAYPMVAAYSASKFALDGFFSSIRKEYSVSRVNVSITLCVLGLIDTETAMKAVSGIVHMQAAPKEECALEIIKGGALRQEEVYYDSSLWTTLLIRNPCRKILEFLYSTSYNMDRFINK

11β-HSD1 [2] = molecular target: T1, 11β-HSD1; assay: Biological Test Example 4: HTRF assay of 11β-HSD1 in human liver microsomes; conditions: HTRF cortisol detection
Method: In vitro inhibition of 11β-HSD1 by test compounds is determined with HTRF (Homogeneous Time-Resolved Fluorescence) technology (cisbio international, France) detecting cortisol generated from […] by human liver microsomes. […] Cortisol generated in the reaction is then detected with a competitive immunoassay, involving two HTRF conjugates: cortisol linked to XL665 and anti-cortisol antibody labeled with Europium cryptate. The incubation period for detection reaction is typically 2 hours. […] The ratio of the two emission signals is then calculated (Em665*10000/Em615). […] Each assay also contains a calibration curve with cortisol to transform the fluorescent data into cortisol concentrations. Percent inhibition (% CTL) of each compound is determined relative to the carbenoxolone signal and IC50 curves are generated.
Target sequence in this assay (P28845 whole entry): as the sequence (P28845 whole entry, species assumed) above

11β-HSD1 [3] = molecular target: T1, 11β-HSD1; assay: Biological Test Example 1: inhibition of a microsomal preparation of 11β-HSD1 (SPA); conditions: for Average % inhibition at 100 nM / inhibition at 0.1 µM: 100 nM compound; for inhibition at 0.1 µM: read-out: Average % inhibition at 100 nM, Biological Test Example 1
Target sequence in this assay (P28845 whole entry): as the sequence (P28845 whole entry, species assumed) above

[4] = Biological Test Example 1, microsomes from CHO cells overexpressing human 11β-HSD1, read-out: IC50 Range
[5] = Biological Test Example 1, read-out: IC50

| SMILES | IC50 (11β-HSD1 [1]) [nM] | IC50 (11β-HSD1 [3]; [4]) [nM] | IC50 (11β-HSD1 [3]; [5]) [nM] | other results |
| --- | --- | --- | --- | --- |
| O=C(OC1C2CC3CC(C2)CC1C3)N1CCCC1c1ccccc1 (centres unmarked) [EXAMPLE 7, 2-adamantyl 2-phenylpyrrolidine-1-carboxylate] | < 100 | – | – | – |
| O=C(OC1C2CC3CC(C2)CC1C3)N1CCC(N2C(=O)Cc3ccccc32)CC1 (centres unmarked) [EXAMPLE 27, 2-adamantyl 4-(2-oxoindolin-1-yl)piperidine-1-carboxylate] | < 100 | – | – | – |
| N#Cc1ccn([C@@H]2CCN(C(=O)OC3C4CC5CC3CC(O)(C5)C4)C2)c(=O)c1 (single isomer, unassigned; isomer 2) [Example 78 Isomer 2] | – | – | – | IC50 (11β-HSD1 [2]): 1170 nM |
| N#Cc1ccc(=O)n([C@@H]2CCN(C(=O)OC3C4CC5CC3CC(O)(C5)C4)C2)c1 (stereo partly drawn) [Example 77, (R)-3-(5-Cyano-2-oxo-2H-pyridin-1-yl)-pyrrolidine-1-carboxylic acid 5-hydroxy-adamantan-2-yl ester] | – | – | – | IC50 (11β-HSD1 [2]): > 10000 nM |
| O=C(OC1C2CC3CC(C2)CC1C3)N1CCCC1Cc1ccccc1 (centres unmarked) [EXAMPLE 9, 2-adamantyl 2-benzylpyrrolidine-1-carboxylate] | < 100 | – | – | – |
| Cc1ccccc1C1(CC(=O)O)CCN(C(=O)OC2C3CC4CC(C3)CC2C4)CC1 (centres unmarked) [EXAMPLE 12, 2-(1-(2-adamantyloxycarbonyl)-4-o-tolylpiperidin-4-yl)acetic acid] | 100 to 1000 | – | – | – |
| N#Cc1ccnc(O[C@@H]2CCN(C(=O)OC3C4CC5CC3CC(O)(C5)C4)C2)c1 (stereo partly drawn) [Example 79, (R)-3-(4-Cyano-hyridin-2-yloxy)-pyrrolidine-1-carboxylic acid 5-hydroxy-adamantan-2-yl ester] | – | – | – | IC50 (11β-HSD1 [2]): > 10000 nM |
| O=C(OC1C2CC3CC(C2)CC1C3)N1CCC(Cc2ccccc2)C1 (centres unmarked) [EXAMPLE 10, 2-adamantyl 3-benzylpyrrolidine-1-carboxylate] | < 100 | – | – | – |
| O=C(OC1C2CC3CC(C2)CC1C3)N1CCC(c2ccccc2)C1 (centres unmarked) [EXAMPLE 8, 2-adamantyl 3-phenylpyrrolidine-1-carboxylate] | < 100 | – | – | – |
| CCOC(=O)C1(Cc2ccccc2)CCCN(C(=O)OC2C3CC4CC(C3)CC2C4)C1 (centres unmarked) [EXAMPLE 13, 1-(2-adamantyl) 3-ethyl 3-benzylpiperidine-1,3-dicarboxylate] | < 100 | – | – | – |
| NC(=O)c1cnc(C2CCN(C(=O)OC3C4CC5CC3CC(C(N)=O)(C5)C4)C2)nc1 (single isomer, unassigned) [EXAMPLE 47 Isomer 2, 1-carbamoyl-4-adamantyl 3-(5-carbamoylpyrimidin-2-yl)pyrrolidine-1-carboxylate] | – | < 100 | 91.6 | Average % inhibition at 100 nM (11β-HSD1 [3]; Biological Test Example 1): 55.6% |
| Cc1cc(C)nc(C2CCN(C(=O)OC3C4CC5CC3CC(C(N)=O)(C5)C4)C2)n1 (single isomer, unassigned) [EXAMPLE 43 Isomer 2, cis-1-carbamoyl-4-adamantyl 3-(4,6-dimethylpyrimidin-2-yl)pyrrolidine-1-carboxylate] | – | > 100 | > 100 | Average % inhibition at 100 nM (11β-HSD1 [3]; Biological Test Example 1): −1.8% |
| Cn1cc(-c2cnc(C3CCN(C(=O)OC4C5CC6CC4CC(C(N)=O)(C6)C5)C3)nc2)ccc1=O (single isomer, unassigned) [EXAMPLE 58 Isomer 2, 1-carbamoyl-4-adamantyl 3-(5-(1-methyl-6-oxo-1,6-dihydropyridin-3-yl)pyrimidin-2-yl)pyrrolidine-1-carboxylate] | – | > 100 | > 100 | Average % inhibition at 100 nM (11β-HSD1 [3]; Biological Test Example 1): 3.8% |
| N#Cc1ccn([C@@H]2CCN(C(=O)OC3C4CC5CC3CC(O)(C5)C4)C2)c(=O)c1 (single isomer, unassigned; isomer 1) [Example 78 Isomer 1] | – | – | – | IC50 (11β-HSD1 [2]): > 10000 nM |
| Cn1c(=O)n([C@H]2CCN(C(=O)O[C@H]3C4CC5CC3C[C@](C(N)=O)(C5)C4)C2)c2c(Cl)cccc21 [EXAMPLE 71, (S)-trans-1-carbamoyl-4-adamantyl 3-(7-chloro-3-methyl-2-oxo-2,3-dihydro-1H-benzo[d]imidazol-1-yl)pyrrolidine-1-carboxylate] | – | < 100 | 0.67 | inhibition at 0.1 µM (11β-HSD1 [3]): 96.6% |
| O=C(OC1C2CC3CC(C2)CC1C3)N1CCC(c2nc(-c3ccncc3)cs2)C1 (centres unmarked) [EXAMPLE 51, 2-adamantyl 3-(4-(pyridin-4-yl)thiazol-2-yl)pyrrolidine-1-carboxylate] | – | < 100 | 0.7 | inhibition at 0.1 µM (11β-HSD1 [3]): 96.8% |
| NC(=O)[C@]12CC3CC(C1)[C@@H](OC(=O)N1CC[C@H](n4c(=O)[nH]c5ccccc54)C1)C(C3)C2 [EXAMPLE 60, (S)-trans-1-carbamoyl-4-adamantyl 3-(2-oxo-2,3-dihydro-1H-benzo[d]imidazol-1-yl)pyrrolidine-1-carboxylate] | – | < 100 | 0.76 | inhibition at 0.1 µM (11β-HSD1 [3]): 93.9% |
| CCOC(=O)C1(Cc2ccccc2OC)CCCN(C(=O)OC2C3CC4CC(C3)CC2C4)C1 (centres unmarked) [EXAMPLE 14, 1-(2-adamantyl) 3-ethoxycarbonyl-3-(2-methoxybenzyl)piperidine-1-carboxylate] | – | < 100 | – | inhibition at 0.111 µM (11β-HSD1 [3]; read-out: Average % inhibition at 111 nM): 87.6%; IC50 (11β-HSD1 [3]; read-out: IC50): 7.15 nM |
| Cc1ccc(C2CCN(C(=O)OC3C4CC5CC3CC(C(N)=O)(C5)C4)C2)nc1 (single isomer, unassigned) [EXAMPLE 35 Isomer 1, trans-1-carbamoyl-4-adamantyl 3-(5-methylpyridin-2-yl)pyrrolidine-1-carboxylate] | – | < 100 | 1.61 | Average % inhibition at 100 nM (11β-HSD1 [3]; Biological Test Example 1): 91.6% |
